Experimental data published in patent publication US20210290784A1, “POSITRON EMISSION TOMOGRAPHY (PET) RADIOTRACERS FOR IMAGING MACROPHAGE COLONY-STIMULATING FACTOR 1 RECEPTOR (CSF1R) IN NEUROINFLAMMATION” (The Johns Hopkins University, priority 2018, published 2021).
Entries after “also recorded” stand apart in the source; their conditions may differ.

Key:
CSF1R [1] = target: T1, CSF1R (Mus musculus, UniProt P09581)
T1 sequence (P09581 20-977): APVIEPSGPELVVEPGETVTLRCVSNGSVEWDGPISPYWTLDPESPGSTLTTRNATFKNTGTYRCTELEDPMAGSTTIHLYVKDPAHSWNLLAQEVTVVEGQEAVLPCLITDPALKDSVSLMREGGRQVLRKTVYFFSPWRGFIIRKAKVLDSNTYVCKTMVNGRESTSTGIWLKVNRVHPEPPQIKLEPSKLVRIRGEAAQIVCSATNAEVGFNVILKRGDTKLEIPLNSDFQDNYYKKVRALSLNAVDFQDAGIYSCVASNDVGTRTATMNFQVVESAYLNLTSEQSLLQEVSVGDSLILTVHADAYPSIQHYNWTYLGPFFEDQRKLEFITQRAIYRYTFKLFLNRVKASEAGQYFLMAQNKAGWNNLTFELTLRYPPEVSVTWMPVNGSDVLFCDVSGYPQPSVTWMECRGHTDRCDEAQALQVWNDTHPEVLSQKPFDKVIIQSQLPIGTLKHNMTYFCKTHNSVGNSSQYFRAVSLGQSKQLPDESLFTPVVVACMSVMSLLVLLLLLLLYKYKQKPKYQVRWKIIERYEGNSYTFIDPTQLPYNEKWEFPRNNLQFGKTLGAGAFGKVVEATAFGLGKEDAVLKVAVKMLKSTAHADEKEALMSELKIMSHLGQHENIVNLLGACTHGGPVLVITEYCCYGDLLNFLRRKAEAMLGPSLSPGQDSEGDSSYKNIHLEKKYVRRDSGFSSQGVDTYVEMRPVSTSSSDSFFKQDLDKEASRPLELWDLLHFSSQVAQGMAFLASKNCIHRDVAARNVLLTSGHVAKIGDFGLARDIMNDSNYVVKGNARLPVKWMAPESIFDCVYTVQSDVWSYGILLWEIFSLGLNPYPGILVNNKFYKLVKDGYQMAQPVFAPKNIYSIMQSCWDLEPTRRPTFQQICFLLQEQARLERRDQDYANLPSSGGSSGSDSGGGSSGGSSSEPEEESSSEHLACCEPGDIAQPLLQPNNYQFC

CSF1R [2] = target: T1, CSF1R; assay: Blocking study with unlabeled CPPC in control mice; assay type: in vivo; set-up: from tissue; host or cells: brain of living CD-1, C57BL/6J, transgenic APP (AD model), EAE and CSF1R KO mice
Procedure: Mice (male CD1 or C57BL/6J) were killed by cervical dislocation at 45 min following i.v. injection of [^11C]CPPC. The blockers, CPPC (0.3, 0.6, 1.2, 3.0, 10, and 20 mg/kg), or CSF1R inhibitor, compound 8 (Illig C R, et al. (2008)) (2 mg/kg), were given i.p., 5 min before [^11C]CPPC, whereas baseline animals received vehicle. […] Regional brain uptake of [^11C]CPPC at baseline was compared with that with blocking.
Animals were sacrificed by cervical dislocation at 45 min following injection of 5.1 MBq (0.14 mCi) [^11C]CPPC [specific radioactivity=511 GBq/μmol (13.8 Ci/μmol)] in 0.2 mL saline into a lateral tail vein. […] The percentage of standardized uptake value (% SUV) was calculated.
Animals were sacrificed by cervical dislocation at 45 min following injection of 5.0 MBq (0.135 mCi) [^11C]CPPC [specific radioactivity=390 GBq/μmol (10.5 Ci/μmol)] in 0.2 mL saline into a lateral tail vein. […] The outcome variables for the cortex are presented without blood correction as % SUV (FIG. 11A) and with blood correction as SUVR (FIG. 11B).

CSF1R [3] = target: T1, CSF1R; assay: Brain uptake in intracranial LPS (i.c.-LPS) mouse model of neuroinflammation; assay type: in vivo; set-up: from tissue; host or cells: brain of living CD-1, C57BL/6J, transgenic APP (AD model), EAE and CSF1R KO mice; settings: i.c.-LPS mice
Procedure: (§1) Experiment 1, FIG. 1A. […] CD1 mice were anaesthetized with avertin (250 mg/kg, IP). Peri-procedural analgesia was provided with finadine (2.5 mg/kg, SC). The coordinates for intraparenchymal injection in the right forebrain were AP −0.5 mm′ DV −2.5 mm; and ML 1.0 right of midline. The holes were drilled perpendicularly to the previously exposed skull. Sterile phosphate buffered saline (PBS) (0.5 μL) or 5 μg lipopolysaccharide (LPS, 011:B4, Calbiochem, San Diego, Calif.) in 0.5 μL PBS was injected into the brain parenchyma using a 1 μL Hamilton syringe. After injection, the needle was kept in the brain for additional 3 min and slowly removed. The incision was sealed with dental cement. […] The whole brains were removed and dissected on ice. […] The outcome variables were calculated as % SUV.
as §1, with “2,” for “1,”, “1B.” for “1A.”, “The” for “CD1”

CSF1R [4] = target: T1, CSF1R; assay: PET/CT imaging in EAE mice; assay type: in vivo; set-up: from tissue; host or cells: brain of living CD-1, C57BL/6J, transgenic APP (AD model), EAE and CSF1R KO mice

[11CH3]N1CCN(c2ccc(NC(=O)c3ccc(C#N)o3)c(N3CCCCC3)c2)CC1 [[^11C]CPPC, 5-cyano-N-(4-(4-[^11C]methylpiperazin-1-yl)-2-(piperidin-1-yl)phenyl)furan-2-carboxamide]
ex vivo binding potential (BPex vivo) (CSF1R [1]; LPS mice, (LPS uptake-sham uptake)/sham uptake): 0.53-0.62 | SUVR uptake in i.p.-LPS mice vs controls (CSF1R [1]; experiments 2 and 3, blood-corrected, 45 min): significantly greater | blocking with nonradiolabeled CPPC, % SUV radioactivity (experiment 1) (CSF1R [1]; i.p.-LPS mice, CPPC 1 mg/kg IP, no blood correction): did not cause a significant reduction | specific fraction of whole-brain binding (CSF1R [1]; i.p.-LPS mice, blocking with CPPC and compound 8): more than 50% | blood corrected cortex SUVR, blocking vs baseline (CSF1R [2]; CD1 mice, unlabeled CPPC 0.6 and 3 mg/kg, P=0.05, n=3): significantly lower | cortex % SUV, blocking vs baseline, without blood correction (CSF1R [2]; CD1 mice, unlabeled CPPC 0.6 and 3 mg/kg, P>0.05, n=3): No significant difference | reduction of radioactivity (SUVR, blood-corrected) with blocking (CSF1R [2]; control CD1 mice, cortex, unlabeled CPPC 0.6 and 3 mg/kg IP, 45 min): 20% | % SUV brain uptake with blocking, low doses of unlabeled CPPC (CSF1R [2]; control CD1 mice, dose escalation, 0.6-3 mg/kg, 45 min, no blood correction): no reduction; also recorded: failed to show a significant reduction; also recorded: insignificant blockade | % SUV brain uptake with blocking, high doses of unlabeled CPPC (CSF1R [2]; control CD1 mice, dose escalation, 10-20 mg/kg, 45 min, no blood correction): gradual trend toward increased uptake; also recorded: insignificant gradual increase of uptake | specific fraction of elevated binding vs. sham animals (CSF1R [3]): ~50% | reduction of uptake by blocking with nonradiolabeled CPPC, low dose (CSF1R [3]; blocker 0.3 mg/kg IP): insignificant | reduction of uptake by blocking with nonradiolabeled CPPC, higher doses (CSF1R [3]; blocker 0.6 or […] IP): significantly reduced | brainstem uptake in EAE mice vs control animals (CSF1R [4]): up to twofold greater
